Data on one compound can be found in US7183320B2, “Benzoylsulfonamides and sulfonylbenzamidines for use as antitumour agents” (Eli Lilly and Company, priority 2002, dated 2007).

Series [1] concerns MURINE SQUAMOUS LUNG LC-12. The experiment in a line: Early stage murine squamous lung LC-12 (Table VI). Conditions: Balb/C female mice. The class given is in vivo. From the text:
(§1) Conventional Murine Tumor and Human Tumor Xenouraft Assays
Briefly, the murine tumor or human xenograph was implanted subcutaneously using either 12-gauge trocar implants or counted number of cells. The location for the trocar insertion is midway between the axillary and inguinal region along the side of the mouse. The trocar is slipped approximately ¾ of an inch subcutaneously up toward the axilla before discharging the tumor fragment, and pinching the skin as the trocar is removed., Alternatively, human tumor cells prepared from a […] of donor tumors (5×10^6 cells) were implanted subcutaneously in a hind-leg of a male or female nude mouse (Charles River). Either a test compound in vehicle or vehicle alone was administered by intravenous bolus injection (iv), intraperitoneal injection (ip), or oral gavage (po). Each treatment group, as well as a group of untreated control animals, consisted of five animals per group in each experiment. […] Body weights were taken as a general measure of toxicity. The subcutaneous tumor data were analyzed by determining the median tumor weight for each treatment group over the course of the experiment and calculating the tumor growth delay as the difference in days for the treatment versus the control tumors to reach a volume of either 500 or 1000 mm^3.
The parameters measured in each experiment are summarized in the following paragraphs. • Tumor Weight(mg)=(a×b^2)/2 where a=tumor length (mm) and b=tumor width (mm). • Tumor Growth Delay=T−C where T is the median time (days) required for the treatment group tumors to reach a predetermined size, and C is the median time (days) for the control group tumors to reach the same size. Tumor-free survivors are excluded from this calculation, and are tabulated separately (Tumor Free).
The median tumor weight of each group is determined (including zeros). The T/C value in percent is an indication of antitumor effectiveness.

In the next series the test system is HUMAN PROSTATE LNCaP. The experiment in a line: Early stage human prostate LNCaP xenograft (Table VII). The format is in vivo. Conditions: total dose 840 mg/kg: 140 mg/kg/injection IV on days 3, 5, 7, 9, 10, and 11, Balb/C SCID female mice.
Excerpt: as §1
Inhibition of tumors transplanted into mice is an accepted procedure for studying the efficacy of antitumor agents (Corbett, et al., In vivo Methods for Screening and Preclinical Testing; Use of rodent solid tumors for drug discovery., In: Anticancer Drug Development Guide: Preclinical Screening, Clinical Trials, and Approval, B. Teicher (ed), Humana Press Inc., Totowa, N.J., Chapter 5, pages 75–99 (1997); (Corbett, et al., Int., J. Parmacog., 33, Supplement, 102–122 (1995)). Murine tumors or human xenographs were implanted essentially as described by Corbett in In vivo Methods for Screening and Preclimical Testing; Use of rodent solid tumors for drug discovery. Briefly, the murine tumor or human xenograph was implanted subcutaneously using either 12-gauge trocar implants or counted number of cells. The location for the trocar insertion is midway between the axillary and inguinal region along the side of the mouse. The trocar is slipped approximately ¾ of an inch subcutaneously up toward the axilla before discharging the tumor fragment, and pinching the skin as the trocar is removed., Alternatively, human tumor cells prepared from a […] of donor tumors (5×10^6 cells) were implanted subcutaneously in a hind-leg of a male or female nude mouse (Charles River). Either a test compound in vehicle or vehicle alone was administered by intravenous bolus injection (iv), intraperitoneal injection (ip), or oral gavage (po). Each treatment group, as well as a group of untreated control animals, consisted of five animals per group in each experiment. Subcutaneous tumor response was monitored by tumor volume measurement performed twice each week over the course of the experiment (60–120 days). Body weights were taken as a general measure of toxicity. The subcutaneous tumor data were analyzed by determining the median tumor weight for each treatment group over the course of the experiment and calculating the tumor growth delay as the difference in days for the treatment versus the control tumors to reach a volume of either 500 or 1000 mm^3.
The compound of Example 110 was tested against a variety of murine and human tumors substantially as described supra. The parameters measured in each experiment are summarized in the following paragraphs. • Tumor Weight(mg)=(a×b^2)/2 where a=tumor length (mm) and b=tumor width (mm). • Tumor Growth Delay=T−C where T is the median time (days) required for the treatment group tumors to reach a predetermined size, and C is the median time (days) for the control group tumors to reach the same size. Tumor-free survivors are excluded from this calculation, and are tabulated separately (Tumor Free).
[formula] • where Tumor Growth Delay is as previously defined and Td is tumor volume doubling time (days), estimated from the best fit straight line from a log-linear growth plot of the control group of tumors in exponential growth (100–800 mg range) • % T/C mass—The treatment and control groups are measured when the control group tumors reach approximately 700 to 1200 mg in size (median group). The median tumor weight of each group is determined (including zeros). The T/C value in percent is an indication of antitumor effectiveness. A T/C≦42% is considered significant antitumor activity. A T/C<10% is considered to indicate highly significant antitumor activity. • Body Weight Loss Nadir—A body weight loss nadir (mean of group) of greater than 20% or drug deaths greater than 20% are considered to indicate an excessively toxic dosage in single course trials. • Activity Rating—the Activity Rating is derived from the Log Kill according to the following table: […]
For orientation: In xenograft studies the graft and the host belong to different species.

Where [2] appears, read: total dose 640 mg/kg: 160 mg/kg/injection IV on days 4, 6, 8, and 10.
Where [3] appears, read: total dose 1391 mg/kg: 107 mg/kg/injection IV every second day, days 4 to 28.

On to `O=C(NS(=O)(=O)c1ccccc1)c1ccc(Cl)cc1Cl` [Example 110, N-[2,4-dichlorobenzoyl]phenylsulfonamide], for which, in series [1] (setting [2]), the “% BODY WT LOSS AT NADIR” value was found to be 0%, the “% T/C MASS” value is 14%, the “ACTIVITY RATING” value is “++ (1.3–1.9)” and the “DRUG DEATHS” value was 0/4. Further, in series [1] (setting [2]), the “GROWTH DELAY” value was 12.5 days, the “LOG KILL” value was 1.7 and the “TUMOR FREE AT DAY 174” value is given as 0/4. Further, in series [1] (setting [3]), the “% BODY WT LOSS AT NADIR” value is “+1.6%”, the “% T/C MASS” value is 20%, the “ACTIVITY RATING” value is “+++ (2.0–2.8)” and the “DRUG DEATHS” value is listed as 0/5. Besides, in series [1] (setting [3]), the “GROWTH DELAY” value amounted to 15.5 days, the “LOG KILL” value amounted to 2.1 and the “TUMOR FREE AT DAY 174” value is listed as 0/5. For the same compound, in the series on HUMAN PROSTATE LNCaP, the “% BODY WT LOSS AT NADIR” value is given as “+5.6%”, the “% T/C MASS” value amounted to 0%, the “ACTIVITY RATING” value is reported as “++++ (HIGHLY ACTIVE >2.8)” and the “DRUG DEATHS” value is 0/5. In addition, the “TUMOR FREE AT DAY 185” value with HUMAN PROSTATE LNCaP is 4/5. Moreover, in the series with HUMAN PROSTATE LNCaP (one mouse), the “GROWTH DELAY (DAYS)” value is reported as 60^b DAYS and the “LOG KILL” value is 7.2^b.
